Source: article PMC4826033 (ACS chemical biology, 2015)

Assays:
[1] = system: E. coli indicator strain ATCC 27856; experiment: Antibacterial activity against E. coli indicator strain; assay type: cell-based; conditions: data not shown
[2] = system: 20S proteasome; conditions: cited from earlier work

Structure (SMILES)	antibacterial activity against E. coli [1]	proteasome inhibitory properties (in words) [2]
C=C(NC(=O)C(=C)NC(=O)c1csc(C2=N[C@@H]3c4csc(n4)[C@H]4NC(=O)c5csc(n5)[C@H]([C@](C)(O)[C@@H](C)O)NC(=O)[C@H]5CSC(=N5)/C(=C/C)NC(=O)[C@H]([C@@H](C)O)NC(=O)c5csc(n5)[C@]3(CC2)NC(=O)[C@H](C)NC(=O)C(=C)NC(=O)[C@H](C)NC(=O)[C@H]([C@@H](C)CC)N[C@@H]2C=Cc3c([C@H](C)O)cc(nc3[C@H]2O)C(=O)O[C@@H]4C)n1)C(N)=O [Thiostrepton A]	Neither thiostrepton A nor its Ala4 variants displayed any antibacterial activity	active proteasome inhibitors
C=C(NC(=O)C(=C)NC(=O)c1csc(C2=NC3c4csc(n4)[C@H]4NC(=O)c5csc(n5)[C@H]([C@](C)(O)[C@@H](C)O)NC(=O)[C@H]5CSC(=N5)/C(=C/C)NC(=O)[C@H]([C@@H](C)O)NC(=O)c5csc(n5)[C@@]3(CC2)NC(=O)[C@H](C)NC(=O)C(=C)NC(=O)C(=C)NC(=O)[C@H](C(C)C)N[C@@H]2C=Cc3c([C@H](C)O)cc(nc3[C@H]2O)C(=O)O[C@@H]4C)n1)C(N)=O (some centres unmarked) [siomycin]	–	active proteasome inhibitors
C/C=C(\NC(=O)c1csc(-c2csc(-c3ccc4c(n3)-c3csc(n3)[C@H]([C@@H](C)O)NC(=O)c3csc(n3)[C@H](C(C)C)NC(=O)c3csc(n3)/C(=C/C)NC(=O)[C@H]([C@@H](C)O)NC(=O)c3csc-4n3)n2)n1)C(=O)NC[C@@H](C)O [micrococcin P1]	–	have not yet revealed any proteasome inhibitory properties
C/C=C(\NC(=O)c1csc(-c2csc(-c3ccc4c(n3)-c3csc(n3)[C@H]([C@@H](C)O)NC(=O)c3csc(n3)[C@H](C(C)(C)O)NC(=O)c3csc(n3)/C(=C/C)NC(=O)[C@H]([C@@H](C)O)NC(=O)c3csc-4n3)n2)n1)C(=O)NC[C@@H](C)O [thiocillin I]	–	have not yet revealed any proteasome inhibitory properties
